Values joined by “and” are separate entries in the source; they are usually repeats but may differ in a detail not shown here. Equal entries are not always repeated. “Also recorded” adds a separate entry of the source. Where two headings read alike, the source gives them in different places.
Columns and labels:
[1] = tested on: Daphnia magna; settings: for Mean mortality (n = 20): five daphnids per well, four replicates
[2] = tested on: Salmonella typhimurium TA100; assay: Ames mutagenicity test (agar plate method), strain TA100; settings: for Number of revertant colonies per plate, Mean / mutagenic/cytotoxic effect (in words) / Number of revertant colonies per plate, NR 1 / Number of revertant colonies per plate, NR 2 / Number of revertant colonies per plate, NR3: TA 100; for Number of revertant colonies per plate, NR 1: plate 1; for Number of revertant colonies per plate, NR 2: plate 2; for Number of revertant colonies per plate, NR3: plate 3
From the text: The revertant bacteria are detected by their ability to grow in the absence of the amino acid required by the parent test strain. The Ames test method was employed to investigate the potential of a chemical to induce a mutagenic effect in exposed organisms. Three different Salmonella typhimurium bacteria strains ([TA98 P450], [TA100], and [TA100—P450], which simulate metabolic activation) were used in order to account for discrepancies in the way similar organisms (bacteria) may respond to test solutions.
Salmonella typhimurium bacteria were cultured on a freshly prepared nutrient broth medium (Merck, Germany), and allowed to stand overnight. Bacterial growth was confirmed by visual turbidity inspection. […] All experiments were carried out in triplicate. The mutagenicity of the PCs was further classified based on fuzzy logic four-gridded indices (Table 2).
A substance is deemed mutagenic if its mutation rate is twice or more than that of the background.
Salmonella typhimurium bacterial strains TA 98 P450, TA 100, or TA100 P450 were exposed to an equimolar concentration (10 and 100 µg/L) ternary cocktail mixtures of the L, C, and S in the Ames test.

[3] = tested on: Allium cepa; assay: Allium cepa root length assay (phytotoxic inhibition of root growth); assay type: in vivo
Method: (§1) Whole-onions test specimens were grown at room temperature (in triplicate). The onions were initially grown for 2 days in tap water. Prior to growing them in tap water, the ring of the root, the primordia at the bottom of the onion bulb, was scraped with a sterile surgical blade to remove all existing root growth. After 2 days of tap water exposure, the lengths of the root fibers of each onion were measured and recorded. This was followed by exposure to the test solutions for another 2 days (tap water was used as the control). […] At the end of the exposure, the onion roots were cut 3 cm from the tip and placed in Carnoy’s fixative solution ([…] (Merck, Germany)) until further microscopic analysis.
The test APCs and their mixtures in different combinations were investigated for their phytotoxic characteristics at 10 µg/L and 100 µg/L concentrations, using A. cepa bioassays. The root length assay relies on evaluating the root length of A. cepa as an indicator endpoint to assess the susceptibility of plants exposed to xenobiotics by evaluating physical impacts on their root growth. The ratio between the root length (mm) (RRL) after and before exposure to test solutions ( ^RLAERLBE ) was used as indices for the APCs’ phytotoxicity.

[4] = tested on: Salmonella typhimurium TA100 P450; assay: Ames mutagenicity test (agar plate method), strain TA100 P450; assay type: cell-based; settings: for Number of revertant colonies per plate, Mean / mutagenic/cytotoxic effect (in words): TA100 P450; for Number of revertant colonies per plate, NR 1 / Number of revertant colonies per plate, NR 2 / Number of revertant colonies per plate, NR3: TA 100 P450; for Number of revertant colonies per plate, NR 1: plate 1; for Number of revertant colonies per plate, NR 2: plate 2; for Number of revertant colonies per plate, NR3: plate 3
Method: (§2) Bacterial growth was confirmed by visual turbidity inspection. […] All experiments were carried out in triplicate.

[5] = tested on: Salmonella typhimurium TA98 P450; assay type: cell-based; settings: for Number of revertant colonies per plate, NR 1: plate 1; for Number of revertant colonies per plate, NR 2: plate 2; for Number of revertant colonies per plate, NR3: plate 3
Method: as §2

[6] = tested on: root tip meristem cells of Allium cepa; assay: Allium cepa root tip microscopic examination (chromosomal aberrations); assay type: cell-based; settings: 100 µg/L; for chromosomal aberrations observed in root tip meristem: light microscopy
Method: as §1
This was followed by washing the root tips in distilled water, after which they were stained using Feulgen stain for 2–3 min. The stained root tips were then rinsed in distilled water, transferred onto clean glass microscope slides, and counter-stained with acetocarmine. […] The squashed onion root tips were thereafter imaged using a LEICA DM-750 light microscope at × 400 and × 1000 magnifications.
Microscopic evaluation of Allium cepa cells during mitosis was conducted to ascertain the impacts the L, C, and S test samples (lone and mixtures) will have on the genetic materials of the onion roots at cellular levels.

For Nc1ccn([C@@H]2CS[C@H](CO)O2)c(=O)n1 [Lamivudine, lamivudine], the Mean % mortality ([1]; 10 µg/L, 24 h) was 10%, the “Mean mortality (n = 20)” value ([1]; 10 µg/L, 24 h) was 0.50 ± 0.60 and the Mean % mortality ([1]; 10 µg/L, 48 h) was 45%. The “Mean mortality (n = 20)” value ([1]; 10 µg/L, 48 h) was 2.30 ± 1.00, the Mean % mortality ([1]; 100 µg/L, 24 h) was 85% and the “Mean mortality (n = 20)” value ([1]; 100 µg/L, 24 h) was 4.30 ± 1.00. For the same molecule, the Mean % mortality ([1]; 100 µg/L, 48 h) was 100%, the “Mean mortality (n = 20)” value ([1]; 100 µg/L, 48 h) was 5.00 ± 0.00 and the “LD50 as log concentration” value ([1]; 24 h) was 1.533 log conc. (ppb). For the same molecule, the “LD50 as log concentration” value ([1]; 48 h) was 1.091 log conc. (ppb) and 1.09 log conc. (ppb), the “Toxic unit 24 hrs” value ([1]; toxic unit of the constituent in the LCS mixture, 24 h) was 1.12 and the “Toxic unit 48 hrs” value ([1]; toxic unit of the constituent in the LCS mixture, 48 h) was 1.93. The “Ames test (mutagenicity) TA 100” value [2] was “b (key: Toxic (a) x<0.5; No mutagenicity (b) x≥0.5≤1.5; Mutagenic to a lesser extent (c) x>1.5<2.0; Significantly mutagenic (d) x≥2.0)”, the “Number of revertant colonies per plate, Mean” value (“Number … per plate, Mean” below) ([2]; 10 µg/L) was 160 and the “mutagenic/cytotoxic effect (in words)” value ([2]; 10 µg/L) was “did not exert either mutagenic or cytotoxic effects”. For the same molecule, the “Number of revertant colonies per plate, NR 1” value (“Number … per plate, NR 1” for short) ([2]; 10 µg/L) was 190, the “Number of revertant colonies per plate, NR 2” value (from here on “Number … per plate, NR 2”) ([2]; 10 µg/L) was 150 and the “Number of revertant colonies per plate, NR3” value (from here on “Number … per plate, NR3”) ([2]; 10 µg/L) was 140. The “Number … per plate, Mean” value ([2]; 100 µg/L) was 163, the “Number … per plate, NR 1” value ([2]; 100 µg/L) was 180 and the “Number … per plate, NR 2” value ([2]; 100 µg/L) was 150. The “Number … per plate, NR3” value ([2]; 100 µg/L) was 160, the “A. cepa root exposure R.L” value ([3]; 10 µg/L) was “-” and the “A. cepa root exposure R.L” value ([3]; 100 µg/L) was “+”. The “Number … per plate, Mean” value ([4]; 10 µg/L) was 233, the “mutagenic/cytotoxic effect (in words)” value ([4]; 10 µg/L) was “did not exert either mutagenic or cytotoxic effects” and the “Number … per plate, NR 1” value ([4]; 10 µg/L) was 200. The “Number … per plate, NR 2” value ([4]; 10 µg/L) was 200, the “Number … per plate, NR3” value ([4]; 10 µg/L) was 300 and the “Number … per plate, Mean” value ([4]; 100 µg/L) was 300. For the same molecule, the “Number … per plate, NR 1” value ([4]; 100 µg/L) was 210, the “Number … per plate, NR 2” value ([4]; 100 µg/L) was 310 and the “Number … per plate, NR3” value ([4]; 100 µg/L) was 380. For the same molecule, the “Number … per plate, Mean” value ([5]; 10 µg/L) was 16, the “mutagenic/cytotoxic effect (in words)” value ([5]; 10 µg/L) was “did not exert either mutagenic or cytotoxic effects” and the “Number … per plate, NR 1” value ([5]; 10 µg/L) was 13. For the same molecule, the “Number … per plate, NR 2” value ([5]; 10 µg/L) was 23, the “Number … per plate, NR3” value ([5]; 10 µg/L) was 13 and the “Number … per plate, Mean” value ([5]; 100 µg/L) was 18. The “mutagenic/cytotoxic effect (in words)” value ([5]; 100 µg/L) was “to a much lesser extent mutagenic; also recorded: some level of mutagenic activities”, the “Number … per plate, NR 1” value ([5]; 100 µg/L) was 20 and the “Number … per plate, NR 2” value ([5]; 100 µg/L) was 15. For the same molecule, the “Number … per plate, NR3” value ([5]; 100 µg/L) was 18, the “A. cepa root exposure C.A (chromosomal aberration)” value [6] was “+” and the “chromosomal aberrations observed in root tip meristem” value (“chromosomal aberrations observed” for short) [6] was “irregular prophase and metaphase”.
Cc1cc(NS(=O)(=O)c2ccc(N)cc2)no1 [Sulfamethoxazole, sulfamethoxazole] was tested, and the Mean % mortality ([1]; 10 µg/L, 24 h) was 15%, the “Mean mortality (n = 20)” value ([1]; 10 µg/L, 24 h) was 0.75 ± 0.50 and the Mean % mortality ([1]; 10 µg/L, 48 h) was 30%. For the same molecule, the “Mean mortality (n = 20)” value ([1]; 10 µg/L, 48 h) was 1.50 ± 1.73, the Mean % mortality ([1]; 100 µg/L, 24 h) was 50% and the “Mean mortality (n = 20)” value ([1]; 100 µg/L, 24 h) was 2.50 ± 0.58. The Mean % mortality ([1]; 100 µg/L, 48 h) was 95%, the “Mean mortality (n = 20)” value ([1]; 100 µg/L, 48 h) was 4.75 ± 0.50 and the “Number … per plate, Mean” value ([2]; 10 µg/L) was 123. The “Number … per plate, NR 1” value ([2]; 10 µg/L) was 100, the “Number … per plate, NR 2” value ([2]; 10 µg/L) was 150 and the “Number … per plate, NR3” value ([2]; 10 µg/L) was 120. For the same molecule, the “Number … per plate, Mean” value ([2]; 100 µg/L) was 117, the “Number … per plate, NR 1” value ([2]; 100 µg/L) was 110 and the “Number … per plate, NR 2” value ([2]; 100 µg/L) was 110. The “Number … per plate, NR3” value ([2]; 100 µg/L) was 130 and the “chromosomal aberrations observed” value [6] was “vagrant chromosome in anaphase and alignment anaphase”.
With O=C(O)c1cn(C2CC2)c2cc(N3CCNCC3)c(F)cc2c1=O [Ciprofloxacin, ciprofloxacin] the Mean % mortality ([1]; 10 µg/L, 24 h) was 10%, the “Mean mortality (n = 20)” value ([1]; 10 µg/L, 24 h) was 0.50 ± 0.58 and the Mean % mortality ([1]; 10 µg/L, 48 h) was 55%. The “Mean mortality (n = 20)” value ([1]; 10 µg/L, 48 h) was 2.75 ± 0.50, the Mean % mortality ([1]; 100 µg/L, 24 h) was 50% and the “Mean mortality (n = 20)” value ([1]; 100 µg/L, 24 h) was 2.5 ± 1.73. For the same molecule, the Mean % mortality ([1]; 100 µg/L, 48 h) was 75%, the “Mean mortality (n = 20)” value ([1]; 100 µg/L, 48 h) was 3.75 ± 1.26 and the “Number … per plate, Mean” value ([2]; 10 µg/L) was 140. The “Number … per plate, NR 1” value ([2]; 10 µg/L) was 140, the “Number … per plate, NR 2” value ([2]; 10 µg/L) was 170 and the “Number … per plate, NR3” value ([2]; 10 µg/L) was 110. For the same molecule, the “Number … per plate, Mean” value ([2]; 100 µg/L) was 140, the “mutagenic/cytotoxic effect (in words)” value ([2]; 100 µg/L) was “did not individually exert cytotoxicity” and the “Number … per plate, NR 1” value ([2]; 100 µg/L) was 130. The “Number … per plate, NR 2” value ([2]; 100 µg/L) was 140, the “Number … per plate, NR3” value ([2]; 100 µg/L) was 150 and the “mutagenic/cytotoxic effect (in words)” value ([4]; 10 µg/L) was “did not exert either mutagenic or cytotoxic effects”. For the same molecule, the “mutagenic/cytotoxic effect (in words)” value ([4]; 100 µg/L) was “did not individually exert cytotoxicity”, the “mutagenic/cytotoxic effect (in words)” value ([5]; 10 µg/L) was “did not exert either mutagenic or cytotoxic effects” and the “mutagenic/cytotoxic effect (in words)” value ([5]; 100 µg/L) was “to a much lesser extent mutagenic; also recorded: did not individually exert cytotoxicity; also recorded: some level of mutagenic activities”. The “chromosomal aberrations observed” value [6] was “uncoiling chromosome/irregular prophase”.

Source: publication PMC10656311, “Evaluation of the probable synergistic toxicity of selected potentiated antiretroviral and antibiotics on some aquatic biomarker organisms” (Environmental Monitoring and Assessment, 2023)
